The star is where a group is joined. Biotin = O=C1N[C@H]2[C@H](CS[C@H]2CCCCC(=O)*)N1
Test system: endogenous antibodies to cardiac troponin-I (binding to recombinant human cardiac troponin-I)
Test: Inhibition of anti-cTnI autoantibody binding to cardiac troponin-I (microplate chemiluminescent immunoassay)
Procedure: Inhibitor working solutions: The peptides listed in Table 12 (obtained from Sigma-Genosys, PEPscreen custom library) were diluted in AxSYM® Troponin-I ADV Preincubation Diluent to give solutions ranging from 240 nmol/mL to 0 nmol/mL. An equimolar mixture of the peptides listed in Table 12 was prepared and diluted to give solutions ranging from 240 nmol/mL to 0 nmol/mL/.
Microplate preparation: Recombinant human cardiac troponin-I (cTnI, BiosPacific, Emeryville, Calif.) was coated on white high-binding flat-bottom 96-well polystyrene microplates (Costar) in phosphate buffer (100 μL, 0.2 M, pH 8, 4 μg/mL) at 38° C., for 1 h, then overcoated sequentially with bovine serum albumin and 2% wt/v sucrose in PBS.
Chemiluminescent detection conjugate: A murine anti-human IgG (subtype IgG2b, kappa;) was labeled with a chemiluminescent acridinium-9-carboxamide. This antibody recognized all human IgG subtypes while having no significant reactivity toward human IgM or IgA, or rabbit, sheep or goat IgG. […]
Chemiluminescent detection: The microplate was loaded into a Mithras microplate reader (Berthold Technologies Inc, Oak Ridge, Tenn.) equilibrated at 28° C. The chemiluminescence signal from each well was recorded for 2 s after the sequential addition of ARCHITECT® Pre-Trigger solution (100 μL) and ARCHITECT® Trigger solution (100 μL).

- ratio of signal to the low control (S/LC): inhibition of the binding of endogenous antibodies to the cTnI antigen on the microplate (Example 1, FIG. 11, peptides of Table 12 ([Btn] amino-terminus), 240 to 0 nmol/mL, human serum sample mixed 1:1, overnight): greatest inhibition
- ratio of signal to the low control (S/LC): inhibition of the binding of endogenous antibodies to the cTnI antigen on the microplate (Example 2, FIG. 12, peptides of Table 13 ([Ac] amino-terminus), procedure of Example 1): greatest inhibition
Substance: #5 (Biotin-ALSGMEGRKKKFES-NH2; SMILES CSCC[C@H](NC(=O)CNC(=O)[C@H](CO)NC(=O)[C@H](CC(C)C)NC(=O)[C@H](C)NC(=O)CCCC[C@@H]1SC[C@@H]2NC(=O)N[C@@H]21)C(=O)N[C@@H](CCC(=O)O)C(=O)NCC(=O)N[C@@H](CCCNC(=N)N)C(=O)N[C@@H](CCCCN)C(=O)N[C@@H](CCCCN)C(=O)N[C@@H](CCCCN)C(=O)N[C@@H](Cc1ccccc1)C(=O)N[C@@H](CCC(=O)O)C(=O)N[C@@H](CO)C(N)=O)

Source: patent US20110136141A1, “PEPTIDE REAGENTS AND METHOD FOR INHIBITING AUTOANTIBODY ANTIGEN BINDING” (Abbott Laboratories, priority 2009, published 2011)
